In general, Kd refers to the equilibrium constant for the complex coming apart. The low end stands for a tighter complex, the high end for a looser complex.

Assay [1] has as its target T1, maleylacetate reductase (PcpE) (Sphingobium chlorophenolicum, UniProt F6F233).
T1 construct: gene Sphch_4020; full length, 352 residues; recombinant His6-tagged, tag kept (SPR); mutants in pET30a(+) NdeI/XhoI, E. coli BL21-AI
The assay is described as follows: inhibition of MA reduction, NADH loss at […] nm. The format is biochemical. The note with it: 360 µM NADH, 400 µM MA, 20 mM Tris-HCl pH 7.0.

Assay [2] deals with T1, maleylacetate reductase (PcpE). The assay is described as follows: surface plasmon resonance. The note with it: PcpE immobilised by amine coupling; PBS-T, 5% DMSO, pH 7.4; n = 5. The format is binding.

T1 sequence (F6F233 entry or part of it): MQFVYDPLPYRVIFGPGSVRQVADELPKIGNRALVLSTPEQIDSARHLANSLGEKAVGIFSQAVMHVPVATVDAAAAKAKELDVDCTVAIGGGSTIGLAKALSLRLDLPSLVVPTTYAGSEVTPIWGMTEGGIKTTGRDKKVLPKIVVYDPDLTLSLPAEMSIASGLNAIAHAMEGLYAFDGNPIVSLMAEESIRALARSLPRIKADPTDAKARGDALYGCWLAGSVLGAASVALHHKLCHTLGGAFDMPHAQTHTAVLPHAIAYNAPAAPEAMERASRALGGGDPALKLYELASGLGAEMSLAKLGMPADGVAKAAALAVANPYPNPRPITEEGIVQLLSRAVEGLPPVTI

As to `Oc1c(Cl)c(Cl)c(Cl)c(Cl)c1Cl` [PCP, pentachlorophenol], the “% catalytic activity remaining at 5 μM” value in assay [1] was ~ 30%. In addition, in assay [2], binding was put at a Kd of 12.8 ± 0.2 µM.

The values are drawn from publication PMC5741723, “Residues His172 and Lys238 are Essential for the Catalytic Activity of the Maleylacetate Reductase from Sphingobium chlorophenolicum Strain L-1” (Scientific Reports, 2017).
